From patent US8022206B2 (OSI Pharmaceuticals, LLC, priority 2008, dated 2011)

Columns and labels:
[1] = target: MET (human) (Homo sapiens, UniProt P08581); test: MET (human) AlphaScreen kinase assay, Km of ATP; format: biochemical; details: AlphaScreen, Km of ATP; read-out: Met biochemical IC50
In short: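 Human MET at lot-optimised concentration in 50 mM Tris pH 7.4 buffer with 1 mM DTT, compound at 1% DMSO final; enzyme starts the reaction, 60 min at RT.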

[2] = target: RON (human) (Homo sapiens, UniProt Q04912); test: RON (human) AlphaScreen kinase assay, Km of ATP; format: biochemical; details: AlphaScreen, Km of ATP; read-out: RON biochemical IC50
Chain of RON (human) (Q04912 25-1400): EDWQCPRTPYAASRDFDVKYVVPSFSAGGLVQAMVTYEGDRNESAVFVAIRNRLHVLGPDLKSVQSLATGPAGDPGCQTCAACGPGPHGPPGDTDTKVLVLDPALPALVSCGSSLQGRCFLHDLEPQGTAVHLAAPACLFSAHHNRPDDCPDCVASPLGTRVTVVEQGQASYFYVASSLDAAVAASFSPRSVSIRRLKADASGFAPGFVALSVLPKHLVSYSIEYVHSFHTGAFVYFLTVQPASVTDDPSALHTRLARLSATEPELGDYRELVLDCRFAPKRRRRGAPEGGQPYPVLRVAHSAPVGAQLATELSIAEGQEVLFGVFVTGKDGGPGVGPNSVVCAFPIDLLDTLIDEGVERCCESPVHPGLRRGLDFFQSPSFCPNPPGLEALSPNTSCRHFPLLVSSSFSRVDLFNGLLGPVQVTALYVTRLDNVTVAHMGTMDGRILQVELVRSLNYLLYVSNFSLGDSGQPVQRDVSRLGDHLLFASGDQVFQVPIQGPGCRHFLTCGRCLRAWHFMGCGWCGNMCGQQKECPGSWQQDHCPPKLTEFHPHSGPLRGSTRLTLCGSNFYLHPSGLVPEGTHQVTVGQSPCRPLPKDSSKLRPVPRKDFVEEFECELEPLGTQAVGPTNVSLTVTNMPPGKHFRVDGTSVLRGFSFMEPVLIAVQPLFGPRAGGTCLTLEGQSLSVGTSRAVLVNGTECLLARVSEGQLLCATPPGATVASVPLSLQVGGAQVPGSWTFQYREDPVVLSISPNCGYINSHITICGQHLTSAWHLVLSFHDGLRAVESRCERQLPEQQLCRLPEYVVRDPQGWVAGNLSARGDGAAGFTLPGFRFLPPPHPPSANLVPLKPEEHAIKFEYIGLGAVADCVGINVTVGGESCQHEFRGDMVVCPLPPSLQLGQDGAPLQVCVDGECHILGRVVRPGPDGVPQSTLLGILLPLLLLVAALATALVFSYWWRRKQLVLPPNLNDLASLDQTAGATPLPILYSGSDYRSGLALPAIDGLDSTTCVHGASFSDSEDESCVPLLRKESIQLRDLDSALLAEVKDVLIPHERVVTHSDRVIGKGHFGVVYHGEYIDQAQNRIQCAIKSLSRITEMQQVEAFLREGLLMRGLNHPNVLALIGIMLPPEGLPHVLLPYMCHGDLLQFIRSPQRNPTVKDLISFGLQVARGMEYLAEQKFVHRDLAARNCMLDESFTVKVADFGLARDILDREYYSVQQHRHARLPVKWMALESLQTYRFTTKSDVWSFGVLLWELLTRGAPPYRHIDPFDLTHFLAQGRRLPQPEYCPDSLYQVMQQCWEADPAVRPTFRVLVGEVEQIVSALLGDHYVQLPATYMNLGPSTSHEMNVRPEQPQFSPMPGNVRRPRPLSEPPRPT
In short: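 Detection used PT66 AlphaScreen beads added in Tris pH 7.5/NaCl/EDTA/BSA buffer, read after 1 h incubation. Vehicle-only DMSO wells served as controls.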

Chain of MET (human) (P08581 25-1390): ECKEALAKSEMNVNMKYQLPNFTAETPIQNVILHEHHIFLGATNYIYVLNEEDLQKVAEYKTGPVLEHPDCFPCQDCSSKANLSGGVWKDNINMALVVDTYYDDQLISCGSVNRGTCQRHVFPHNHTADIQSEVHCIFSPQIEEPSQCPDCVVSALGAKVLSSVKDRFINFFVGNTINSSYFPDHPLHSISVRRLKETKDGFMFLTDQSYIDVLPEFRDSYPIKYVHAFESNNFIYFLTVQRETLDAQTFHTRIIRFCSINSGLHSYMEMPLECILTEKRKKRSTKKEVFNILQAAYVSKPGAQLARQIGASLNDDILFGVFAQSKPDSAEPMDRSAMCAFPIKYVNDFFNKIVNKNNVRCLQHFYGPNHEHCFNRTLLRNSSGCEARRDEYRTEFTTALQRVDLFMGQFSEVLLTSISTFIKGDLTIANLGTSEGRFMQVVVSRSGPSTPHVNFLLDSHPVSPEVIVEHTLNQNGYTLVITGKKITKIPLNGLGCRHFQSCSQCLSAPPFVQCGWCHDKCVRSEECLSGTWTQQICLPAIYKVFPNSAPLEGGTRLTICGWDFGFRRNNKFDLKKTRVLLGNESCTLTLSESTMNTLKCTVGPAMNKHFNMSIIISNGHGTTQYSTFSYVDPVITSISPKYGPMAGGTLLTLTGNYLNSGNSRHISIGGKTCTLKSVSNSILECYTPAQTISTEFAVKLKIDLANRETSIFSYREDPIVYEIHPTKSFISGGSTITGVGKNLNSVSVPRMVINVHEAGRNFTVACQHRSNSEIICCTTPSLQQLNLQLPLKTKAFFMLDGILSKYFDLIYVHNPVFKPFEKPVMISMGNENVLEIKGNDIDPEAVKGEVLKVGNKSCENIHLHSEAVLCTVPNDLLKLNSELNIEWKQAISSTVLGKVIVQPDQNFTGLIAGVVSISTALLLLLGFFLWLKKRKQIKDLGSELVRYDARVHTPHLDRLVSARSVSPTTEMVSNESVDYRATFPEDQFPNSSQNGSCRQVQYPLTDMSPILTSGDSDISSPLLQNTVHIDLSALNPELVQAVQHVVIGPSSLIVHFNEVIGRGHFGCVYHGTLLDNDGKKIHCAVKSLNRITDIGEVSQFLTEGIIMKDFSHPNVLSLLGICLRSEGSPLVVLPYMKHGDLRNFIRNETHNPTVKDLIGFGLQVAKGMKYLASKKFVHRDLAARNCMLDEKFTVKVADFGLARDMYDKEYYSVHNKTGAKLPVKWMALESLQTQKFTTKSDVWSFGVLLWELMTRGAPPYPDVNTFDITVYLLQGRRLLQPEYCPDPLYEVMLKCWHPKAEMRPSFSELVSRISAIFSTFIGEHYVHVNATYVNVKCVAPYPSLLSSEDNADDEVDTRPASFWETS

| IC50 [1] | IC50 [2] | Structure (SMILES) |
| --- | --- | --- |
| 500 to 5000 nM | 500 to 5000 nM | C[C@@H](Oc1c(N)ncc2c(C3=CCN(C(=O)c4ncc[nH]4)CC3)coc12)c1c(Cl)ccc(F)c1Cl [Example 232, (4-{6-Amino-7-[(R)-1-(2,6-dichloro-3-fluorophenyl)ethoxy]-furo[3,2-c]pyridin-3-yl}-3,6-dihydro-2H-pyridin-1-yl)-(1H-imidazol-2-yl)-methanone] |
| 500 to 5000 nM | 500 to 5000 nM | COc1ccc(-c2coc3c(O[C@H](C)c4c(Cl)ccc(F)c4Cl)c(N)ncc23)cc1 [Example 69, 7-[(R)-1-(2,6-Dichloro-3-fluorophenyl)ethoxy]-3-(4-methoxyphenyl)-furo[3,2-c]pyridin-6-ylamine] |
| 500 to 5000 nM | 500 to 5000 nM | Nc1ncc2c(-c3cnn(C4CCNCC4)c3)coc2c1O[C@H]1CCCC[C@H]1c1ccccc1 [Example 409] |
| < 500 nM | 500 to 5000 nM | Cc1ccccc1C(C)Oc1c(N)ncc2c(-c3cnn(C4CCNCC4)c3)coc12 (centres unmarked) [Example 342, 3-(1-Piperidin-4-yl-1H-pyrazol-4-yl)-7-(1-o-tolylethoxy)furo[3,2-c]pyridin-6-ylamine] |
| < 500 nM | < 500 nM | CC(O)C(=O)N1CC=C(c2coc3c(O[C@H](C)c4c(Cl)ccc(F)c4Cl)c(N)ncc23)CC1 (stereo partly drawn) [Example 229, 1-(4-{6-Amino-7-[(R)-1-(2,6-dichloro-3-fluorophenyl)ethoxy]-furo[3,2-c]pyridin-3-yl}-3,6-dihydro-2H-pyridin-1-yl)-2-hydroxypropan-1-one] |
| 500 to 5000 nM | 500 to 5000 nM | CC(C)OC(=O)N1CC=C(c2coc3c(O[C@H](C)c4c(Cl)ccc(F)c4Cl)c(N)ncc23)CC1 [Example 53, 4-{6-Amino-7-[(R)-1-(2,6-dichloro-3-fluorophenyl)-ethoxy]-furo[3,2-c]pyridin-3-yl}-3,6-dihydro-2H-pyridine-1-carboxylic acid isopropyl ester] |

Second part, the compound before the results:

| Structure (SMILES) | IC50 [1] | IC50 [2] |
| --- | --- | --- |
| C[C@@H](Oc1c(N)ncc2c(-c3cnc(N)nc3)coc12)c1c(Cl)ccc(F)c1Cl [Example 113, 3-(2-Amino-pyrimidin-5-yl)-7-[(R)-1-(2,6-dichloro-3-fluorophenyl)ethoxy]furo[3,2-c]pyridin-6-ylamine] | 500 to 5000 nM | 500 to 5000 nM |
| COc1cccc(Cl)c1C(C)Oc1c(N)ncc2c(-c3cnn(C4CCNCC4)c3)coc12 (centres unmarked) [Example 359, 7-[1-(2-Chloro-6-methoxyphenyl)ethoxy]-3-(1-piperidin-4-yl-1H-pyrazol-4-yl)furo[3,2-c]pyridin-6-ylamine] | < 500 nM | < 500 nM |
| C[C@@H](Oc1c(N)ncc2c(Br)coc12)c1c(Cl)ccc(F)c1Cl [Example 2, 3-Bromo-7-[(R)-1-(2,6-dichloro-3-fluorophenyl)-ethoxy]-furo[3,2-c]pyridin-6-ylamine] | 500 to 5000 nM | 5000 to 20000 nM |
| C[C@@H](Oc1c(N)ncc2c(-c3cnn(C4CCNCC4)c3)c(C#CC(C)(C)O)oc12)c1c(Cl)ccc(F)c1Cl [Example 171, 4-[6-Amino-7-[(R)-1-(2,6-dichloro-3-fluorophenyl)ethoxy]-3-(1-piperidin-4-yl-1H-pyrazol-4-yl)-furo[3,2-c]pyridin-2-yl]-2-methylbut-3-yn-2-ol] | < 500 nM | < 500 nM |
| CC(Oc1c(N)ncc2c(-c3cnn(C4CCNCC4)c3)coc12)c1nc2ccccc2s1 (centres unmarked) [Example 404, 7-(1-Benzothiazol-2-ylethoxy)-3-(1-piperidin-4-yl-1H-pyrazol-4-yl)furo[3,2-c]pyridin-6-ylamine] | 500 to 5000 nM | 500 to 5000 nM |
| Nc1ncc2c(-c3cnn(C4CCNCC4)c3)coc2c1OC1CCCc2c(F)cccc21 (centres unmarked) [Example 390, 7-(5-Fluoro-1,2,3,4-tetrahydronaphthalen-1-yloxy)-3-(1-piperidin-4-yl-1H-pyrazol-4-yl)furo[3,2-c]pyridin-6-ylamine] | < 500 nM | < 500 nM |
| C[C@@H](Oc1c(N)ncc2c(-c3csc(CN)c3)coc12)c1c(Cl)ccc(F)c1Cl [Example 310, 3-(5-Aminomethylthiophen-3-yl)-7-[(R)-1-(2,6-dichloro-3-fluoro-phenyl)ethoxy]furo[3,2-c]pyridin-6-ylamine] | < 500 nM | < 500 nM |
